Experiments:
[1] = system: UVB radiation-induced skin tumors; experiment: UVB-induced skin carcinogenesis in high-risk mice, dietary treatment; type: in vivo, mouse; settings: vs control
Procedure: Seeds of broccoli (Brassica oleracea italica, cv. DeCicco) were used to grow sprouts as described in Example 1. Growth was arrested after 3 days by plunging sprouts into boiling water and allowed to boil for ˜30 min. This treatment inactivated the endogenous sprout myrosinase and extracted the glucosinolates. […] The powder was mixed with the mouse diet (powdered AIN 76A) to give the equivalent of 10 μmol (low dose) or 50 μmol (high dose) of glucoraphanin per 3 grams of diet.
Body weights and formation of tumors larger than 1 mm in diameter were determined weekly.
UVB radiation was provided by a bank of UV lamps (FS72T12-UVB-HO, National Biological Corporation, Twinsburg, Ohio) emitting UVB (280-320 nm, 65% of total energy) and UVA (320-375 nm, 35% of total energy). The radiant dose of UVB was quantified with a UVB Daavlin Flex Control Integrating Dosimeter and further calibrated with an IL-1400 radiometer (International Light, Newburyport, Mass.).
The animals were irradiated for 20 weeks on Tuesdays and Fridays with a radiant exposure of 30 mJ/cm^2/session. […]
Tumor volumes were determined by measuring the height, length, and width of each mass that was larger than 1 mm in diameter. The average of the three measurements was used as the diameter and the volume was calculated (v=4πr^3/3). All mice were euthanized on the same day and the size and multiplicity of tumors was determined. […]

[2] = system: glutathione; settings: topical extract containing 1 μmol sulforaphane, 24 h, vs vehicle
From the text: Female SKH-1 hairless mice (4 weeks old) were obtained from Charles River Breeding Laboratories (Wilmington, Mass.) and were acclimatized in our animal facility for 2 weeks before the start of the experiment. The animals were kept on a 12-h light/12-h dark cycle, 35% humidity, and given free access to water and pelleted AIN 76A diet (Harlan TekLad, free of inducers). All animal experiments were in compliance with the National Institutes of Health Guidelines and were approved by the Johns Hopkins University Animal Care and Use Committee.
The animals were euthanized 24 h later and their dorsal skins were dissected using a rectangular template (2.5×5 cm) and frozen in liquid N2. […] Centrifugation at 14,000 g for 20 min at 4° C. yielded clear supernatant fractions, aliquots of which were used for determination of protein content, enzyme activity, and total glutathione levels as described below for the cell culture experiments.

[3] = system: PE murine keratinocytes; settings: 5 μM for 24 h, UVA 10 J/cm^2, PE cells
Procedure: Reactive oxygen intermediates generated by the UV radiation were quantified by the fluorescent probe 2′,7′-dichlorodinitrofluorescein and fluorescence intensity was measured (expressed as a ratio of exposed to non-exposed cells).
PE cells (50,000 per well) were seeded into 24-well plates and grown for 48 h. […] On the day of the experiments, after removing the medium, the cells were incubated with 100 μM 2′,7′-dichlorodinitrofluorescein diacetate in 500 μl of fresh medium (Molecular Probes, Eugene, Oreg.) for 30 min. The medium containing the fluorescent probe was then removed, the cells were washed with DPBS, and exposed to UVA radiation (10 J/cm^2) Control cells were kept in the dark. Cells were detached with trypsin, suspended in 2.0 ml of DPBS, and the intensity of fluorescence was determined in cell suspensions at 520 nm with an excitation of 485 nm in 2-ml cuvettes in a Perkin-Elmer LS50 spectrofluorimeter.

| Compound | inhibition in total tumor volume per mouse ([1]; high dose) [%] | inhibition in total tumor volume per mouse ([1]; low dose) [%] | elevation of total glutathione levels in skin [2] [%] | reduction in reactive oxygen intermediates generated by UV radiation [3] [%] |
| --- | --- | --- | --- | --- |
| C[S+]([O-])CCCC/C(=N\OS(=O)(=O)O)S[C@@H]1O[C@H](CO)[C@@H](O)[C@H](O)[C@H]1O (stereo partly shown) [glucoraphanin] | 70 | 70 | – | – |
| C[S+]([O-])CCCCN=C=S (stereo not shown) [sulforaphane] | – | – | ~15 | 50 |

Reference: patent publication US20090247477A1, “Methods of suppressing uv light-induced skin carcinogenesis” (priority 2005, published 2009)
